ChEMBL document CHEMBL5154822, “Novel inhibitors of AChE and Aβ aggregation with neuroprotective properties as lead compounds for the treatment of Alzheimer's disease” (Eur J Med Chem, 2022)
Calls of active or inactive are those of the source. The rule behind the calls is not given here.

Key:
[1] = target: T1, Acetylcholinesterase (Mus musculus) (UniProt P21836); test: Inhibition of AChE in mouse cerebral cortex using acetylthiocholine iodide as substrate at 40 uM preincubated for 10 mins followed by substrate addition and measured for 180 secs by Ellman's spectrophotometric method; type: tissue-based; conditions: time 780.0 sec
T1 sequence (whole entry): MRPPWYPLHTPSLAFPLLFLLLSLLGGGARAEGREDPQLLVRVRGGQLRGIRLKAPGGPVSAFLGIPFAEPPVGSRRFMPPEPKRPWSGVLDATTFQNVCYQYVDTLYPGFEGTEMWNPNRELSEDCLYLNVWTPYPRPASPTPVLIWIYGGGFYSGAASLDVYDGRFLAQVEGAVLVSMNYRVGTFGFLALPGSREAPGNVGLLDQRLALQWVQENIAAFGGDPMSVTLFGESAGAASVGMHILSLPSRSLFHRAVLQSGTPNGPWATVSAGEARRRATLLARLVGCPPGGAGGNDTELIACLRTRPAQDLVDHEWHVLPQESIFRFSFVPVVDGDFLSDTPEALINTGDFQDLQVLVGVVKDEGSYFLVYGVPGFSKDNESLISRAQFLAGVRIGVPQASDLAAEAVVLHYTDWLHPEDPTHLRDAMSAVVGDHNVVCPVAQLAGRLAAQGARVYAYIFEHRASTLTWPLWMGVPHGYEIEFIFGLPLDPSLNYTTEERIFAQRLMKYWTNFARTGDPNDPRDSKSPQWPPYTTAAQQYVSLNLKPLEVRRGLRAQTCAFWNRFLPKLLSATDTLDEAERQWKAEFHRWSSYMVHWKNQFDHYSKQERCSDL

Acetylcholinesterase = target: T2, Acetylcholinesterase (Mus musculus, UniProt P21836); test: Inhibition of AChE in mouse cerebral cortex using acetylthiocholine iodide as substrate preincubated for 10 mins followed by substrate addition and measured for 180 secs by Ellman's spectrophotometric method; type: tissue-based
T2 sequence (P21836 whole entry): T1 sequence (whole entry)

SH-SY5Y [2] = test: Neuroprotective activity in human SH-SY5Y cells assessed as inhibition of okadaic acid-induced mitochondrial dysfunction by measuring increase in red-to-green fluorescence intensity ratio pretreated for 24 hrs followed by okadaic acid addition for 24 hrs by JC-1 dye based fluorescence analysis; type: functional, cell-based; conditions: dose 0.5-5 µM, time 48.0 hrs, DDE = dose-dependent effect
SH-SY5Y [3] = test: Neuroprotective activity in human SH-SY5Y differentiated neuronal cells assessed as inhibition of GA-induced neurite shortening by measuring increase in axon length at 0.5 uM by laser confocal microscope; type: functional, cell-based
Mus musculus [4] = test: In vivo inhibition of AChE in ig dosed ICR mouse hippocampus using acetylthiocholine iodide as substrate and measured after 1 hr by microplate reader analysis; type: functional, organism-based; conditions: dose 1-4 mg/kg, DDE = dose-dependent effect
SH-SY5Y [5] = test: Neuroprotective activity in human SH-SY5Y differentiated neuronal cells assessed as inhibition of GA-induced axon morphology defects at 5 uM by laser confocal microscope; type: functional, cell-based
Mus musculus [6] = test: In vivo inhibition of AChE in ig dosed ICR mouse cerebral cortex using acetylthiocholine iodide as substrate and measured after 1 hr by microplate reader analysis; type: functional, organism-based; conditions: dose 1-4 mg/kg, DDE = dose-dependent effect
SH-SY5Y [7] = test: Neuroprotective activity in human SH-SY5Y differentiated neuronal cells assessed as inhibition of GA-induced neurite shortening by measuring increase in axon length at 5 uM by laser confocal microscope; type: functional, cell-based
Mus musculus [8] = test: In vivo inhibition of AChE in ICR mouse hippocampus using acetylthiocholine iodide as substrate at 4 mg/kg, ig measured after 1 hr by microplate reader analysis; type: functional, organism-based
Mus musculus [9] = test: In vivo inhibition of AChE in ICR mouse cerebral cortex using acetylthiocholine iodide as substrate at 4 mg/kg, ig measured after 1 hr by microplate reader analysis; type: functional, organism-based
SH-SY5Y [10] = test: Neuroprotective activity in human SH-SY5Y differentiated neuronal cells assessed as inhibition of GA-induced axon morphology defects at 0.5 uM by laser confocal microscope; type: functional, cell-based
SH-SY5Y [11] = test: Antioxidant activity against okadaic acid-induced ROS generation in human SH-SY5Y cells assessed as reduction in DCF fluorescence intensity at 5 uM pretreated for 24 hrs followed by okadaic acid addition for 24 hrs by DCFH-DA dye based fluorescence analysis; type: functional, cell-based; conditions: time 48.0 hrs
[12] = target: Acetylcholinesterase (Homo sapiens) (UniProt P22303); test: Inhibition of AChE in human SH-SY5Y differentiated neuronal cells assessed as inhibition of GA-induced tau hyperphosphorylation at Ser396 residue at 10 nM by ELISA; type: cell-based
Acetylcholinesterase (Homo sapiens), sequence (P22303 whole entry): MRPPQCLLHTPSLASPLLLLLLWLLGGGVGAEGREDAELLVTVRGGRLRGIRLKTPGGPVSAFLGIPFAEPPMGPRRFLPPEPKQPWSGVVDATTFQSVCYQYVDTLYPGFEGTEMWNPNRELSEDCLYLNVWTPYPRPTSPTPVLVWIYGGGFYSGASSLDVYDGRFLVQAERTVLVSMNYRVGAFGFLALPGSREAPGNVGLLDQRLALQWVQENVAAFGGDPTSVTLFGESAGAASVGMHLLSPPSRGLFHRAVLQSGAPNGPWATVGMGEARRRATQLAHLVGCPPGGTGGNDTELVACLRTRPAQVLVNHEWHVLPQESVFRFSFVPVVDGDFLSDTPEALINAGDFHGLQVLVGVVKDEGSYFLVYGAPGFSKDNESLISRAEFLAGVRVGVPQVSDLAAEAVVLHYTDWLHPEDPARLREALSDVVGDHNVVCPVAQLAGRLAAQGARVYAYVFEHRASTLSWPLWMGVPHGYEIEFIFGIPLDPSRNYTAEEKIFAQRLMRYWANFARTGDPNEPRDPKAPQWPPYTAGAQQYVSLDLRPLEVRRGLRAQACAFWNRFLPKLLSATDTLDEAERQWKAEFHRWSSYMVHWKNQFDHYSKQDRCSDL

[13] = target: Acetylcholinesterase (Homo sapiens) (UniProt P22303); test: Inhibition of AChE in glyceraldehyde-exposed human SH-SY5Y differentiated neuronal cells using acetylthiocholine as substrate at 50 nM by Ellman's spectrophotometric method; type: cell-based
SH-SY5Y [14] = test: Neuroprotective activity in human SH-SY5Y differentiated neuronal cells assessed as inhibition of GA-induced cell death by measuring increase in cell viability at 0.5 to 5 uM measured after 24 hrs by MTT assay; type: functional, cell-based; conditions: dose 0.5-5 µM
Mus musculus [15] = test: Antialzheimer activity against scopolamine-induced cognitive deficit ICR mouse model assessed as improvement in memory impairment by measuring reduction in number of errors at 0.1 to 0.3 mg/kg, ig by step-through passive avoidance test; type: functional, organism-based; conditions: dose 0.1-0.3 mg/kg
[16] = Inhibition of CYP3A4 in human liver microsomes using midazolam as substrate preincubated for 10 mins followed by NADPH addition and measured after 10 mins by LC-MS/MS analysis; type: ADME, Microsome
[17] = Inhibition of CYP3A4 in human liver microsomes using testosterone as substrate preincubated for 10 mins followed by NADPH addition and measured after 10 mins by LC-MS/MS analysis; type: ADME, Microsome
Cytochrome P450 2C9 = Cytochrome P450 2C9 (Homo sapiens, UniProt P11712); test: Inhibition of CYP2C9 in human liver microsomes using diclofenac as substrate preincubated for 10 mins followed by NADPH addition and measured after 10 mins by LC-MS/MS analysis; type: ADME, Microsome
Cytochrome P450 2C9, sequence (P11712 whole entry): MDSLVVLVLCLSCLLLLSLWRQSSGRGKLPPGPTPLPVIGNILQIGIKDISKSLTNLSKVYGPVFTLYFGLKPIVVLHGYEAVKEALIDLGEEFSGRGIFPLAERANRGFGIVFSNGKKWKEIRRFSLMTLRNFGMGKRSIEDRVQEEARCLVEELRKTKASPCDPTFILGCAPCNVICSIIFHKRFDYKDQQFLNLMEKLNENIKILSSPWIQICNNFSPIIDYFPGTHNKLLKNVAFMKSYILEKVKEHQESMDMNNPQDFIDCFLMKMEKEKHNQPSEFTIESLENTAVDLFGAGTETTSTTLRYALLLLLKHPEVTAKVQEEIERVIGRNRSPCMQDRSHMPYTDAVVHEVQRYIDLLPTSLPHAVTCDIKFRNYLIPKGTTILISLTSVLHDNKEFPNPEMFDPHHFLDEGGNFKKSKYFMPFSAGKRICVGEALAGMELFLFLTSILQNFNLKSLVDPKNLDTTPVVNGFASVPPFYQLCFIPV

Cytochrome P450 2D6 = Cytochrome P450 2D6 (Homo sapiens, UniProt P10635); test: Inhibition of CYP2D6 in human liver microsomes using dextromethorphan as substrate preincubated for 10 mins followed by NADPH addition and measured after 10 mins by LC-MS/MS analysis; type: ADME, Microsome
Cytochrome P450 2D6, sequence (P10635 whole entry): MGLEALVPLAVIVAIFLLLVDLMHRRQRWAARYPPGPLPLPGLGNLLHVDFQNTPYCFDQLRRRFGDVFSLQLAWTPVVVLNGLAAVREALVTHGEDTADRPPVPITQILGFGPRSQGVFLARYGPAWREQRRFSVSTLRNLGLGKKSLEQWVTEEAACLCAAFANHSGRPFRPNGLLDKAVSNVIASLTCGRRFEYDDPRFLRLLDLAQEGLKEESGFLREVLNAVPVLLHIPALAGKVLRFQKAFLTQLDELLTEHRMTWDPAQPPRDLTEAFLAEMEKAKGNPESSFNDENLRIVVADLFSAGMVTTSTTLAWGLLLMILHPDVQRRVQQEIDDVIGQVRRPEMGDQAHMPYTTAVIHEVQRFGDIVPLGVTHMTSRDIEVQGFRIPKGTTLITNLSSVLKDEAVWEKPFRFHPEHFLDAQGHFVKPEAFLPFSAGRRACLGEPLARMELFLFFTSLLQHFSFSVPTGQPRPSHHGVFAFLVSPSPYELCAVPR

Work on `COc1cc2c(cc1OC)S(=O)(=O)/C(=C/C1CCN(Cc3ccccc3)CC1)CCC2` yielded an inhibition [1] of 32.8%.
In the case of `COc1ccc(S(=O)(=O)/C=C/C2CCN(Cc3ccccc3)CC2)cc1OC`, the IC50 (Acetylcholinesterase) is reported as 67.6 nM.
With `COc1cc2c(cc1OC)S(=O)(=O)C(CC1(F)CCN(Cc3ccccc3C(F)(F)F)CC1)C2` (configuration not stated) the IC50 (Acetylcholinesterase) was 3010 nM.
In the case of `COc1cc2c(cc1OC)S(=O)(=O)C(F)(CC1CCN(Cc3cccc(F)c3)CC1)C2` (configuration not stated) [listing 1 of 2 here], the Activity (SH-SY5Y [2]) is reported as “Dde”, the Activity (SH-SY5Y [3]) is reported as “Active” and the inhibition (Mus musculus [4]) is reported as “Dde”. For the same molecule, the Activity (SH-SY5Y [5]) was “Active”, the inhibition (Mus musculus [6]) was “Dde” and the Activity (SH-SY5Y [7]) was “Active”. For the same molecule, the inhibition (Mus musculus [8]) was “Active”, the inhibition (Mus musculus [9]) was “Active” and the Activity (SH-SY5Y [10]) was “Active”. For the same molecule, the Activity (SH-SY5Y [11]) was “Active”, the inhibition [12] was “Active” and the inhibition [13] was “Active”. The Activity (SH-SY5Y [14]) was “Active” and the Activity (Mus musculus [15]) was “Active”.
`CO/C(=C\C1CCN(Cc2ccccc2)CC1)S(=O)(=O)c1ccc(OC)c(OC)c1` gave an IC50 (Acetylcholinesterase) of 8440 nM.
In the case of `COc1cc2c(cc1OC)S(=O)(=O)C(F)(CC1CCN(Cc3cccc(F)c3)CC1)C2` (configuration not stated) [listing 2 of 2 here], the IC50 [16] is reported as greater than 20000 nM, the IC50 [17] is reported as greater than 20000 nM and the IC50 (Cytochrome P450 2C9) is reported as greater than 20000 nM. For the same molecule, the IC50 (Cytochrome P450 2D6) was greater than 20000 nM.
In the case of `COc1cc2cc(CC3CCN(Cc4ccccc4)CC3)sc2cc1OC`, the inhibition [1] is reported as 46.6%.
`COc1cc2c(cc1OC)S(=O)(=O)C(CC1CCN(Cc3ccccc3)CC1)=C2` showed an IC50 (Acetylcholinesterase) of 317 nM.
Molecule `COc1cc2c(cc1OC)S(=O)(=O)C(CC1(F)CCN(Cc3ccccc3Cl)CC1)C2` (configuration not stated) has an IC50 (Acetylcholinesterase) of 5.5 nM.
Molecule `COc1cc2c(cc1OC)S(=O)(=O)/C(=C/C1CCN(Cc3ccccc3)CC1)C2` has an IC50 (Acetylcholinesterase) of 4.7 nM.
For `COc1cc2c(cc1OC)S(=O)(=O)C(CC1(F)CCN(Cc3ccc(F)cc3F)CC1)C2` (configuration not stated), the IC50 (Acetylcholinesterase) was 7.1 nM.
In the case of `CCOC(=O)/C(=C\C1CCN(Cc2ccccc2)CC1)S(=O)(=O)c1ccc(OC)c(OC)c1`, the inhibition [1] is reported as 12.4%.
Work on `COc1cc2c(cc1OC)S(=O)(=O)C(CC1(F)CCN(Cc3ccc(F)c(Cl)c3)CC1)C2` (configuration not stated) yielded an IC50 (Acetylcholinesterase) of 12.9 nM.
Molecule `COc1ccc(S(=O)(=O)/C(Cl)=C/C2CCN(Cc3ccccc3)CC2)cc1OC` has an IC50 (Acetylcholinesterase) of 340 nM.
For `COc1cc2c(cc1OC)S(=O)(=O)C(CC1CCN(Cc3ccc(F)cc3F)CC1)C2` (configuration not stated), the IC50 (Acetylcholinesterase) was 14.7 nM.
Work on `COc1cc2c(cc1OC)S(=O)(=O)C(CC1(F)CCN(Cc3ccccc3C)CC1)C2` (configuration not stated) yielded an IC50 (Acetylcholinesterase) of 12.1 nM.
